# Experimental data reported in PubChem BioAssay AID328 (DTP/NCI, 2004).
# Values joined by “and” are separate entries in the source; they are usually repeats but may differ in a detail not shown here. Equal values may be shown once. Toxic doses and inconclusive results are not listed.
# System: BDF1 mice, P388 leukemia ip, median survival T/C
# Test: NCI In Vivo Anticancer Drug Screen. Data for tumor model P388 Leukemia (intraperitoneal) in B6D2F1 (BDF1) mice
# Details: endpoint: median survival time, higher = longer survival
# In short: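 Read-out is survival of treated animals expressed relative to the vehicle group, as a T/C ratio.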
# [1] = dose: 200.0 mg/kg/injection, schedule: Q04DX003 (ip), vehicle: saline
# [2] = dose: 400.0 mg/kg/injection, schedule: Q04DX003 (ip), vehicle: saline
# [3] = dose: 100.0 mg/kg/injection, schedule: Q01DX001 (ip), vehicle: Klucel (hydroxypropylcellulose) (HPC)
# [4] = dose: 200.0 mg/kg/injection, schedule: Q01DX001 (ip), vehicle: Klucel (hydroxypropylcellulose) (HPC)
# [5] = dose: 100.0 mg/kg/injection, schedule: Q04DX003 (ip), vehicle: Klucel (hydroxypropylcellulose) (HPC)
# [6] = dose: 200.0 mg/kg/injection, schedule: Q04DX003 (ip), vehicle: Klucel (hydroxypropylcellulose) (HPC)
# [7] = dose: 100.0 mg/kg/injection, schedule: Q01DX009 (ip), vehicle: saline with Tween-80
# [8] = dose: 200.0 mg/kg/injection, schedule: Q01DX009 (ip), vehicle: saline with Tween-80
# [9] = dose: 400.0 mg/kg/injection, schedule: Q01DX009 (ip), vehicle: saline with Tween-80
# [10] = dose: 50.0 mg/kg/injection, schedule: Q01DX009 (ip), vehicle: saline
# [11] = dose: 100.0 mg/kg/injection, schedule: Q01DX009 (ip), vehicle: saline
# [12] = dose: 200.0 mg/kg/injection, schedule: Q01DX009 (ip), vehicle: saline
# [13] = dose: 100.0 mg/kg/injection, schedule: Q04DX003 (ip), vehicle: saline with Tween-80
# [14] = dose: 200.0 mg/kg/injection, schedule: Q04DX003 (ip), vehicle: saline with Tween-80
# [15] = dose: 400.0 mg/kg/injection, schedule: Q04DX003 (ip), vehicle: saline with Tween-80
compound,measurement,setting,value
O=C(CCl)Nc1cc(Cl)ccc1N1CCCC1,T/C,"dose: 12.5 mg/kg/injection, schedule: Q01DX001 (ip), vehicle: Klucel (hydroxypropylcellulose) (HPC)",118 % of control
same,T/C,"dose: 12.5 mg/kg/injection, schedule: Q04DX003 (ip), vehicle: Klucel (hydroxypropylcellulose) (HPC)",90 % of control
same,T/C,"dose: 25.0 mg/kg/injection, schedule: Q01DX001 (ip), vehicle: Klucel (hydroxypropylcellulose) (HPC)",104 % of control
same,T/C,"dose: 25.0 mg/kg/injection, schedule: Q01DX009 (ip), vehicle: Klucel (hydroxypropylcellulose) (HPC)",95 % of control
same,T/C,"dose: 25.0 mg/kg/injection, schedule: Q04DX003 (ip), vehicle: Klucel (hydroxypropylcellulose) (HPC)",104 % of control
same,T/C,"dose: 50.0 mg/kg/injection, schedule: Q01DX001 (ip), vehicle: Klucel (hydroxypropylcellulose) (HPC)",104 % of control
same,T/C,"dose: 50.0 mg/kg/injection, schedule: Q01DX009 (ip), vehicle: Klucel (hydroxypropylcellulose) (HPC)",90 % of control
same,T/C,"dose: 50.0 mg/kg/injection, schedule: Q04DX003 (ip), vehicle: Klucel (hydroxypropylcellulose) (HPC)",104 % of control
same,T/C,"dose: 75.0 mg/kg/injection, schedule: Q01DX001 (ip), vehicle: Klucel (hydroxypropylcellulose) (HPC)",95 % of control
same,T/C,"dose: 115.0 mg/kg/injection, schedule: Q01DX001 (ip), vehicle: Klucel (hydroxypropylcellulose) (HPC)",95 % of control
O=C1c2cccc(O)c2C(=O)c2c(OC3OC(CO)C(OC4OC(CO)C(O)C(O)C4O)C(O)C3O)cccc21 (stereo not given),T/C,"dose: 100.0 mg/kg/injection, schedule: Q04DX003 (ip), vehicle: saline",103 % of control
same,T/C,[1],119 % of control
same,T/C,[2],112 % of control
Cc1cc2c3ccccc3ccc2[n+]2ccccc12,T/C,"dose: 4.1 mg/kg/injection, schedule: Q01DX009 (ip), vehicle: saline",120 % of control
same,T/C,"dose: 9.37 mg/kg/injection, schedule: Q01DX009 (ip), vehicle: saline",161 % of control
same,T/C,"dose: 18.75 mg/kg/injection, schedule: Q01DX009 (ip), vehicle: saline",171 % of control and 180 % of control
same,T/C,"dose: 28.12 mg/kg/injection, schedule: Q01DX009 (ip), vehicle: saline",190 % of control
same,T/C,"dose: 37.5 mg/kg/injection, schedule: Q04DX003 (ip), vehicle: alcohol",112 % of control
CCOc1nsc(OCC)n1,T/C,[3],86 % of control
same,T/C,[4],104 % of control
COc1ccc(C(CC(=O)c2ccc3c(c2)OCO3)c2c(O)c3ccccc3oc2=O)cc1OC (stereo not given),T/C,"dose: 25.0 mg/kg/injection, schedule: Q01DX009 (ip), vehicle: saline with Tween-80",89 % of control
same,T/C,"dose: 50.0 mg/kg/injection, schedule: Q01DX009 (ip), vehicle: saline with Tween-80",91 % of control
C/C(=C\c1ccc2c(c1)OCO2)[N+](=O)[O-],T/C,"dose: 85.0 mg/kg/injection, schedule: Q04DX003 (ip), vehicle: Klucel (hydroxypropylcellulose) (HPC)",118 % of control
same,T/C,[5],110 % of control
same,T/C,"dose: 135.0 mg/kg/injection, schedule: Q04DX003 (ip), vehicle: Klucel (hydroxypropylcellulose) (HPC)",109 % of control
same,T/C,[6],100 % of control and 109 % of control
CCCCCCC(=O)/C=C/c1ccc(Cl)cc1,T/C,[7],90 % of control
same,T/C,[8],91 % of control
same,T/C,[9],100 % of control
C=CCNC(=O)c1ccccc1OCC(=O)O,T/C,"dose: 100.0 mg/kg/injection, schedule: Q01DX009 (ip), vehicle: gum acacia",100 % of control
same,T/C,"dose: 100.0 mg/kg/injection, schedule: Q04DX003 (ip), vehicle: gum acacia",100 % of control
same,T/C,"dose: 200.0 mg/kg/injection, schedule: Q01DX009 (ip), vehicle: gum acacia",95 % of control
same,T/C,"dose: 200.0 mg/kg/injection, schedule: Q04DX003 (ip), vehicle: gum acacia",91 % of control
same,T/C,"dose: 400.0 mg/kg/injection, schedule: Q01DX009 (ip), vehicle: gum acacia",91 % of control
same,T/C,"dose: 400.0 mg/kg/injection, schedule: Q04DX003 (ip), vehicle: gum acacia",108 % of control
O=C(O)C1CC[N-]CC1.O=C(O)C1CC[N-]CC1.O=C(O)C1CC[N-]CC1.O=C(O)C1CC[N-]CC1.[Br][Rh][Br],T/C,[10],111 % of control
same,T/C,[11],92 % of control and 93 % of control
same,T/C,[12],93 % of control and 117 % of control
same,T/C,[1],116 % of control
same,T/C,[2],119 % of control
Cc1ccc(S(=O)(=O)NCCCCCC(=O)OCc2ccccc2)cc1,T/C,[10],99 % of control
same,T/C,[11],108 % of control
same,T/C,[12],100 % of control
CSc1ncc2ncn(C3OC(CO)C(O)C3O)c2n1 (stereo not given),T/C,[3],86 % of control
same,T/C,"dose: 100.0 mg/kg/injection, schedule: Q01DX009 (ip), vehicle: Klucel (hydroxypropylcellulose) (HPC)",110 % of control
same,T/C,[7],86 % of control
same,T/C,[5],95 % of control
same,T/C,[13],95 % of control
same,T/C,[4],100 % of control
same,T/C,"dose: 200.0 mg/kg/injection, schedule: Q01DX009 (ip), vehicle: Klucel (hydroxypropylcellulose) (HPC)",105 % of control
same,T/C,[8],95 % of control
same,T/C,[6],100 % of control
same,T/C,[14],95 % of control
same,T/C,"dose: 400.0 mg/kg/injection, schedule: Q01DX001 (ip), vehicle: Klucel (hydroxypropylcellulose) (HPC)",109 % of control
same,T/C,"dose: 400.0 mg/kg/injection, schedule: Q01DX009 (ip), vehicle: Klucel (hydroxypropylcellulose) (HPC)",105 % of control
same,T/C,[9],86 % of control
same,T/C,"dose: 400.0 mg/kg/injection, schedule: Q04DX003 (ip), vehicle: Klucel (hydroxypropylcellulose) (HPC)",100 % of control
same,T/C,[15],100 % of control
CCCCNC(C)(C)C(SC(C)=O)c1ccc(Cl)cc1 (stereo not given),T/C,[13],108 % of control
same,T/C,[14],112 % of control
CC1C(=O)CCC2(C)CCC(C)(C)CC12 (stereo not given),T/C,[13],109 % of control
same,T/C,[14],109 % of control
same,T/C,[15],95 % of control
CSc1ccc2c(c1)C(N1CCN(C)CC1)Cc1ccccc1S2 (stereo not given),T/C,"dose: 6.25 mg/kg/injection, schedule: Q04DX003 (ip), vehicle: saline",113 % of control
same,T/C,"dose: 25.0 mg/kg/injection, schedule: Q04DX003 (ip), vehicle: saline",114 % of control
same,T/C,"dose: 50.0 mg/kg/injection, schedule: Q04DX003 (ip), vehicle: saline",107 % of control
CCOC(=O)C(=O)CC1=CC=CC2=NC(=O)CCN12,T/C,"dose: 66.0 mg/kg/injection, schedule: Q01DX001 (ip), vehicle: saline with Tween-80",109 % of control
same,T/C,"dose: 100.0 mg/kg/injection, schedule: Q01DX001 (ip), vehicle: saline with Tween-80",100 % of control
same,T/C,"dose: 150.0 mg/kg/injection, schedule: Q01DX001 (ip), vehicle: saline with Tween-80",100 % of control
same,T/C,"dose: 200.0 mg/kg/injection, schedule: Q01DX001 (ip), vehicle: saline with Tween-80",100 % of control
C1=CC2CC1C1CSCC21 (stereo not given),T/C,"dose: 0.03 mg/kg/injection, schedule: Q04DX003 (ip), vehicle: saline",100 % of control
same,T/C,"dose: 0.06 mg/kg/injection, schedule: Q04DX003 (ip), vehicle: saline",91 % of control
same,T/C,"dose: 0.13 mg/kg/injection, schedule: Q04DX003 (ip), vehicle: saline",95 % of control
same,T/C,"dose: 0.19 mg/kg/injection, schedule: Q01DX009 (ip), vehicle: saline",95 % of control
same,T/C,"dose: 0.27 mg/kg/injection, schedule: Q04DX003 (ip), vehicle: saline",100 % of control
same,T/C,"dose: 0.39 mg/kg/injection, schedule: Q01DX009 (ip), vehicle: saline",104 % of control
CC1(C)OC(COS(C)(=O)=O)C(COS(C)(=O)=O)O1 (stereo not given),T/C,"dose: 100.0 mg/kg/injection, schedule: Q04DX002 (ip), vehicle: saline with Tween-80",101 % of control
same,T/C,"dose: 200.0 mg/kg/injection, schedule: Q04DX002 (ip), vehicle: saline with Tween-80",104 % of control
same,T/C,"dose: 400.0 mg/kg/injection, schedule: Q04DX002 (ip), vehicle: saline with Tween-80",104 % of control
CCCC=C=CCN(C)C,T/C,"dose: 12.5 mg/kg/injection, schedule: Q04DX002 (ip), vehicle: saline",96 % of control
same,T/C,"dose: 25.0 mg/kg/injection, schedule: Q04DX002 (ip), vehicle: saline",100 % of control
same,T/C,"dose: 50.0 mg/kg/injection, schedule: Q04DX002 (ip), vehicle: saline",112 % of control
CC(C)CC(NC(=O)C(C)N)C(=O)NCC(=O)O (stereo not given),T/C,"dose: 50.0 mg/kg/injection, schedule: Q01DX005 (ip), vehicle: saline",100 % of control
same,T/C,"dose: 100.0 mg/kg/injection, schedule: Q01DX005 (ip), vehicle: saline",91 % of control
same,T/C,"dose: 200.0 mg/kg/injection, schedule: Q01DX005 (ip), vehicle: saline",103 % of control
